Data published in publication PMC12005989, “Purification, identification, and in silico screening of a multifunctional octapeptide from semen armeniacae glutelin-2 hydrolysates: restraining mechanisms to Keap1 and ACE, stability, and ferrous-transport efficiency” (Frontiers in Nutrition, 2025).
Where two headings read alike, the source gives them in different places. Each block holds one compound with its values, some of them ahead of it. Ends that are not written are not given here.

Experiments:
[1] = cited from earlier work
Description: The Asp., Val, Tyr, Phe, and Gly in […] can effectively bind to ferrous ions ([16], [20]). The γ-carboxyl group in Asp and phenolic hydroxyl groups in Tyr and Phe can form ionic bond with ferrous ions ([17]). Ascribed to the excellent metal ion-chelating capacity, Gly is an ideal ingredient for iron or calcium supplement ([45]). In addition, the carbo ...

[2] = tested on: ACE; set-up: method as in 2 sources, ref 34 = [34]; doi:10.1016/j.fbio.2023.103419; 34. Zheng Y Ma J Guo Y Zhuang Y Yang Z Zhu Z . In silico screening and characterization, inhibition mechanism on ACE, and stability of antihypertensive peptides with Zn-chelating capacity identified f ||| ref 45 = [45]; PMID 38470110; doi:10.1021/acs.jafc.4c00829; 45. Martineau-Côté D Achouri A Karboune S L’Hocine L . Antioxidant and angiotensin-converting enzyme inhibitory activity of Faba bean-derived peptides after in vitro gastrointestinal digestion: insigh; settings: read-out: ACE-inhibitory IC50, cited from earlier work
[3] = ABTS+ radical quenching, potassium persulfate method; settings: 100 μg/mL; mean ± SD, triplicate
Experimental: (§1) The free radical quenching ability of samples, including superoxide, 2,2′-hydrazine-bis (3-ethylbenzothiazolin-6-sulfonic acid) diamine salt cation (ABTS^+), and hydroxyl radicals, was determined using the pyrogallol auto-oxidation, potassium persulfate, and β-deoxyribose oxidation methods, according to the same procedures from Tyagi et al. ([6]), Lin et al. ([2]), and Wang et al. ([35]), respectively. Comparison was conducted when the samples were replaced by glutathione (0.1 mg/mL).
As described by Wu et al. ([41]), the simulative gastric digestive fluid consisted of sodium chloride (0.18 mol/L), ultrapure water (180 mL), and 0.40 mg/mL of pepsin. The simulation intestinal digestive juice was composed of NaHCO3 (0.625 g/mL), bile salt (3 g/100 mL), pancreatin (0.35 mg/mL), and 180 mL ultrapure water. In a glass triangle flask, 300 mg of the antihypertensive and antioxidant BAG-2H peptides, 60 mL of ultrapure water, and 150 mL of the simulative gastric fluid were mixed thoroughly. The flask was placed at 37°C in an EDZF-C002 thermostatic vibrator with shaking rate of 140 rpm. After 90 min, 180 mL of the simulative intestinal hydrolysis fluid was added and stirred at 37°C for 2 h. […] The ACE inhibition capacity and antioxidant ability of the treated BAG-2H peptides were detected and compared to those of the undigested BAG-2H peptides.

[4] = Hydroxyl radical quenching, β-deoxyribose oxidation method; settings: 100 μg/mL, mean ± SD, triplicate
Experimental: Next, the purification of BAG-2H is a two-step process: first, BAG-2H solution (1 g/L) was subjected to ultra-filtration on an ultra-membrane (filter aperture of 220 nm, Jingfei Membrane Equipment Factory, Luzhou, China). Next, the ultra-filtrate solution (2 mL) was chromatographically purified citing the modified procedures from Li et al. ([30]). Pre-balanced G-15 gel was loaded into a HS-MG-125 chromatographic column (Huasheng Chromatography Tech. Co., Ltd., Wuxi, China). After the BAG-2H ultra-filtrate solution has completely sunk into the column plane, the gel chromatographic column was sealed and eluted using dH2O with a constant velocity of 2.4 mL/min and monitor wavelength of 220 nm. An automatic collector (BT-160I, Thirdli Collection Equipment Co., Ltd., Guangzhou, China) was used to collect the elution, and the collection tube was changed every 5 min ([34]). After 400 min, the profiles of absorbance at 220 nm against elution time were drawn, and the separation fractions were freeze-dried using the EHI-220D lyophilizer. The ACE-inhibitory, ferrous-binding, and hydroxyl radical quenching abilities of the separation fractions were detected citing the hippuric acid ([50]), […]. During screening of the separation fractions, ACE-inhibitory and hydroxyl radical quenching abilities were the primary indexes, and the amino acid sequences of the selected fraction were analyzed.
as §1, with “Comparison was conducted when the samples were replaced by glutathione (0.1 mg/mL).” left out
Physicochemical properties and functionalities of BAG-2H peptides, including antihypertension and antioxidant activity, were in silico analyzed with the AHTpin^2 and Peptide Ranker server^3 databases ([39]), respectively. […]

[5] = Ferric reducing ability, Prussian blue method; settings: 100 μg/mL, pH 6.8 phosphate buffer, determined at 700 nm, mean ± SD, triplicate
Experimental: Ferric reducing ability was defined as the ability of antioxidants to provide protons, which was administrated according to the Prussian blue method ([2]). A total 1 mL of BAG-2H peptide solution (100 μg/mL, dissolved in 0.2 mol/L of phosphate buffer, pH 6.8) was reacted with potassium ferricyanide (10 mg/mL, 4 mL) in the EDZF-C002 thermostatic vibrator (50°C, 220 rpm) for 30 min. The reaction solution was cooled to 25 ± 1°C and precipitated using an equal volume of 100 mg/mL trichloroacetic acid for 10 min. Then, the reaction solution was centrifuged at 3000 × g for 25 min, and 1 mL of the upper solution was pipetted and reacted with 1 mg/mL of FeCl3 (1.2 mL) to produce Prussian blue (potassium ferrocyanide). The concentration of potassium ferrocyanide produced was positively correlated with the ferric reducing ability of the sample ([37]), which was determined at 700 nm using a HD-UV90 ultraviolet–visible spectrophotometer (Holder Technology Co. LTD, Weifang, China).
As described by Wu et al. ([41]), the simulative gastric digestive fluid consisted of sodium chloride (0.18 mol/L), ultrapure water (180 mL), and 0.40 mg/mL of pepsin. […] The ACE inhibition capacity and antioxidant ability of the treated BAG-2H peptides were detected and compared to those of the undigested BAG-2H peptides.

[6] = Superoxide radical quenching, pyrogallol auto-oxidation method; settings: 100 μg/mL, mean ± SD, triplicate
Experimental: as §1
(§2) As described by Wu et al. ([41]), the simulative gastric digestive fluid consisted of sodium chloride (0.18 mol/L), ultrapure water (180 mL), and 0.40 mg/mL of pepsin. The simulation intestinal digestive juice was composed of NaHCO3 (0.625 g/mL), bile salt (3 g/100 mL), pancreatin (0.35 mg/mL), and 180 mL ultrapure water. In a glass triangle flask, 300 mg of the antihypertensive and antioxidant BAG-2H peptides, 60 mL of ultrapure water, and 150 mL of the simulative gastric fluid were mixed thoroughly. The flask was placed at 37°C in an EDZF-C002 thermostatic vibrator with shaking rate of 140 rpm. After 90 min, 180 mL of the simulative intestinal hydrolysis fluid was added and stirred at 37°C for 2 h. To stop the hydrolysis, the digestion solution in the flask was boiled for 6 min and then cooled by running water to room temperature. The ACE inhibition capacity and antioxidant ability of the treated BAG-2H peptides were detected and compared to those of the undigested BAG-2H peptides.

[7] = target: T1, angiotensin-I-converting enzyme (ACE) (Oryctolagus cuniculus, UniProt P12822); assay: ACE restraining capacity, hippuric acid method; format: biochemical, Rabbit; settings: substrate HHL, absorbance 228 nm, IC50 from regression of inhibition against concentration, tests in triplicate, read-out: ACE-inhibitory activity (IC50)
T1 construct: Rabbit lungs ACE (0.1 U) was obtained from Sigma-Aldrich (St. Louis, MO, USA); purchased Sigma-Aldrich (St. Louis, MO, USA); host or cells: rabbit lung (tissue-derived)
T1 sequence (P12822 34-1310): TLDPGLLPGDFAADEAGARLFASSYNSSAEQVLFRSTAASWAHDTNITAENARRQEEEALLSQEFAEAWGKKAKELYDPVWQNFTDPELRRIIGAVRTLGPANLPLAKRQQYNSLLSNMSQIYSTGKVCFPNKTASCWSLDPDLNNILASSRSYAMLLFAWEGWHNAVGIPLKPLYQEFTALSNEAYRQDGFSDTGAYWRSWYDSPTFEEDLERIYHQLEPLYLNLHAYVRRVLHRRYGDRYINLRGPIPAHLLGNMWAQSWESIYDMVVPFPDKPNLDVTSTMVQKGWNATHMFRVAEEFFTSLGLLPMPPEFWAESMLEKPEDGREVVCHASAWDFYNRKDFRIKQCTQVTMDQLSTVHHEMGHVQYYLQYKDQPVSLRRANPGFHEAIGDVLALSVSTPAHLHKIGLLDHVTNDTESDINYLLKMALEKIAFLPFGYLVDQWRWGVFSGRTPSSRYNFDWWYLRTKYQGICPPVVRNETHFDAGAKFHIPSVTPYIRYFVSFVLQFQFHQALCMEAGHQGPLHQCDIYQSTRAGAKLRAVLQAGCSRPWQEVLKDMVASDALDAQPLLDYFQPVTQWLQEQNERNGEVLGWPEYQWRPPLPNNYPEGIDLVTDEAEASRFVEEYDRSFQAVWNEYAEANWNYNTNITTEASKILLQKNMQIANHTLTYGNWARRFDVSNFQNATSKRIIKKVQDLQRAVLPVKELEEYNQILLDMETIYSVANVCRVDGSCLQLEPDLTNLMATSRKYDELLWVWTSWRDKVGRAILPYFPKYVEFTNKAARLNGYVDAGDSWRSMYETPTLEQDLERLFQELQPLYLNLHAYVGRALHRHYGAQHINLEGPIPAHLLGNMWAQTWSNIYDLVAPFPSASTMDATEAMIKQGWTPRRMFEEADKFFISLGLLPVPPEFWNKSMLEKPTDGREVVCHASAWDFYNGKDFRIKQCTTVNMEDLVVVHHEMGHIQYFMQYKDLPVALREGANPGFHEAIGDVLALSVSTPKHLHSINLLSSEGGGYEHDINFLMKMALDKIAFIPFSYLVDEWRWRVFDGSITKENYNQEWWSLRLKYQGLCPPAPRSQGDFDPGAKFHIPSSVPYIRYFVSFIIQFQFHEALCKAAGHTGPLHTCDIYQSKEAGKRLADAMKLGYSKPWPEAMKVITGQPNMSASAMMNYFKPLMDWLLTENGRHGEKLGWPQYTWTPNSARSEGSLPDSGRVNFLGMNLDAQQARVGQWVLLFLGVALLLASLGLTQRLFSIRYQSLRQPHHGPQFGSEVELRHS

[8] = tested on: Caco-2 cell monolayers; assay: Ferrous transport across Caco-2 cell monolayers; format: in vitro ADME; settings: Caco-2 transwell, apical to basolateral, chelate 320 μg/mL, 37°C, o-phenanthroline, p < 0.05
Experimental: In a 24-well transwell culture plate, Caco-2 cells (0.75 × 10^6 cells/cm^2) were cultivated by Dulbecco’s modified Eagle’s medium that contained fetal bovine serum (20 g/L), streptomycin (1 μg/μL), penicillin (1 μg/μL), and neomycin (1 μg/μL) and refreshed every 48 h. After 12–14 d of incubation at 5% CO2 and 37°C, the transepithelial electrical resistance was more than 400 Ω·cm^2 and a monolayer Caco-2 cell mode was formed. Afterward, the medium was removed, and Hank’s Balanced Salt Solution was added. After 30 min of cultivation at 5% CO2 and 37°C, Hank’s Balanced Salt Solution was removed from the apical side and BAG-2H peptide-ferrous chelates (320 μg/mL) were added and then cultivated at 5% CO2 and 37°C for 150 min. Every 30 min, the o-phenanthroline method was used to quantify the ferrous amounts of cultivate solution in the basolateral side ([38]).

[9] = target: T1, angiotensin-I-converting enzyme (ACE); assay: ACE-inhibitory kinetics, Lineweaver–Burk plot; format: biochemical, Rabbit; settings: inhibitor 0.011–0.055 mmol/L, HHL 0.13–1.32 mmol/L, Vmax not altered, Km increased
Description: The hippuric acid method ([50]) was used to measure the samples’ restraining capacity against ACE citing the same procedures from Zheng et al. ([34]). The absorbance of the reaction solution at 228 nm was the hippuric acid content and was proportional to ACE activity; therefore, the restraining capacity of samples toward ACE was defined as the percentage reduction in the absorption at 228 nm between the control and sample groups. In addition, the ACE-inhibitory kinetic by BAG-2H peptides (0.011–0.055 mmol/L) was investigated employing Lineweaver–Burk plot ([36]).

[10] = Gastrointestinal stability of peptide (simulated gastric and intestinal digestion); format: in vitro ADME; settings: simulated gastric fluid (pepsin 0.40 mg/mL) 90 min, then intestinal fluid (pancreatin, bile salt) 2 h, 37°C; read-out retained activity; p > 0.05
Experimental: as §2

[11] = Ferrous solubility of ferrous chelate during simulated gastrointestinal digestion; format: in vitro ADME; settings: soluble ferrous by o-phenanthroline every 30 min
Experimental: Next, the intestinal digestive fluid was added, and the digestion was continued at pH 6.8 for 2 h in the EDZF-C002 thermostatic vibrator ([…], 175 rpm).

Compound: FEDPEFE [scallop skirts peptide]
- Ferrous chelating ability ([1]; scallop skirts peptide): 9.39 mg/g

Compound: GCHHY
- IC50 ([2]; peptide from millet bran glutelin-2): 147 µM

Compound: N[C@@H](CCC(=O)N[C@@H](CS)C(=O)NCC(=O)O)C(=O)O [Glutathione, glutathione, reference compound]
- ABTS+ scavenging activity, before gastrointestinal [3]: 79.25 ± 1.67%a
- ·OH scavenging activity, before gastrointestinal [4]: 95.56% ± 1.38%a
- Ferric reducing ability, before gastrointestinal [5]: 0.675 ± 0.019a
- Superoxide radical scavenging ability, before gastrointestinal [6]: 90.52% ± 4.97%a

Compound: VIPTEPPHA
- IC50 ([2]; peptide from Faba beans): 260 µM

- IC50 [7]: 101 µM
- ACE-inhibitory mode [9]: competitive ACE inhibitor
Compound: PVDFAGFY-ferrous chelate: ferrous chelate of PVDFAGFY prepared with ferrous chloride (also: ferrous chelate)
- ABTS+ scavenging activity, before gastrointestinal [3]: 35.18% ± 1.16%c
- ·OH scavenging activity, before gastrointestinal [4]: 79.37%
- ·OH scavenging activity, before gastrointestinal ([4]; listed as PVDFAGFY-Fe): 79.37% ± 4.21%b
- Ferric reducing ability, before gastrointestinal ([5]; the values are: absorbance at 700 nm): 0.225 ± 0.012
- Superoxide radical scavenging ability, before gastrointestinal [6]: 69.55%
- Superoxide radical scavenging ability, before gastrointestinal ([6]; listed as PVDFAGFY-Fe): 69.55% ± 3.41%b
- Ferrous transmembrane absorption across Caco-2 monolayer compared with ferrous chloride ([8]; FeCl2 0.3 mg/mL, HBSS, 150 min): higher than that of ferrous chloride
- Ferrous transport across Caco-2 monolayer compared with ferrous lactate, 120–150 min ([8]; ferrous lactate 0.3 mg/mL): better at transporting iron across the monolayer of Caco-2 cells than ferrous lactate

- Stability of antioxidant activity and ACE-inhibitory capacity during gastrointestinal digestion [10]: stable during gastrointestinal digestion
Compound: PVDFAGFY

Compound: SELE [millet bran globulin peptide]
- Ferrous chelating ability ([1]; millet bran globulin peptide): 7.93 mg/g

- Ferrous solubility during gastric digestion (0–90 min) ([11]; simulated gastric fluid with pepsin, pH 1.9, 37°C, 175 rpm): relatively stable
- Ferrous solubility during intestinal digestion (91–180 min) ([11]; simulated intestinal fluid, pH 6.8, 37°C): apparently decreased
Compound: [Cl][Fe][Cl] [ferrous chloride]
